Columns and labels:
[1] = Antagonist activity at PAR4 in ICR mouse platelet-rich plasma assessed as inhibition of PAR4 AP AYPGKF-NH2-induced platelet aggregation by photo-turbidimetry assay
[2] = Antagonist activity at PAR4 in human platelet-rich plasma assessed as inhibition of PAR4 AP AYPGKF-NH2-induced platelet aggregation by photo-turbidimetry assay

Compound | IC50 [1] [µM] | IC50 [2] [µM]
Cc1cn2nc(-c3cccc4ccoc34)sc2n1 | 7.61 | –
Cc1cc(-c2ccccc2C#N)c2ncn(C)c(=O)c2c1 | > 10 | –
Cc1cc(-c2nc3c(Cl)cc(OCCNC(=O)OC(C)(C)C)cc3s2)c2ncn(C)c(=O)c2c1 | 2.07 | –
COCc1cc2cc(C)cc(-c3nn4cc(C)nc4s3)c2o1 | 4.82 | –
Cc1cc(-c2nccs2)c2ncn(C)c(=O)c2c1 | 3.64 | –
COCc1cc2ccc(OC)c(-c3nn4cc(C)nc4s3)c2o1 | 10 | –
Cc1ccc(-c2cc(C)cc3c(=O)n(C)cnc23)cc1 | > 10 | –
Cc1cc(-c2nc3c(Cl)cc(OCCNC(=O)c4ccccc4)cc3s2)c2ncn(C)c(=O)c2c1 | > 10 | –
CCCCc1cc(-c2nc3c(Cl)cc(OC)cc3s2)c2ncn(C)c(=O)c2c1 | 1.38 | –
CCCCc1cc(-c2nc3c(s2)CCCC3)c2ncn(C)c(=O)c2c1 | 7.04 | –
COc1cc(F)c2nc(-c3cc(C)cc4c(=O)n(C(C)C)cnc34)sc2c1 | 6.74 | –
COc1cc(F)c2nc(-c3cc(C)cc4c(=O)n(C)c(C)nc34)sc2c1 | 5.45 | –
CCc1cc(-c2nc3c(s2)CCCC3)c2ncn(C)c(=O)c2c1 | 3.54 | –
Cc1cc(-c2ccc3ccccc3n2)c2ncn(C)c(=O)c2c1 | > 10 | –
Cc1cc2c(c(-c3nn4cc(C)nc4s3)c1)CCN(C)C2=O | 8.7 | –
Cc1cc(-c2ccccc2C)c2ncn(C)c(=O)c2c1 | > 10 | –
Cn1cnc2c(-c3nc4c(s3)CCCC4)cccc2c1=O | 2.61 | –
Cc1cc(-c2ccccc2F)c2ncn(C)c(=O)c2c1 | 5.48 | –
COc1cc(F)c2nc(-c3cc(C)cc4c(=O)n(C)cnc34)sc2c1 | 0.83 | 0.078
COc1ccccc1-c1cc(C)cc2c(=O)n(C)cnc12 | 7.32 | –
Cc1cc(-c2nc3c(Cl)cc(OCCNS(=O)(=O)c4ccc(-c5ccccc5)cc4)cc3s2)c2ncn(C)c(=O)c2c1 | > 10 | –
Cc1nn2cc(-c3cc4ccccc4o3)nc2s1 [US9862730, Example 41] | 1.82 | –
COc1cc(Cl)c2nc(-c3cc(C)cc4c(=O)n(C(C)C)cnc34)sc2c1 | 9.77 | –
CCn1cnc2c(-c3nc4c(F)cc(OC)cc4s3)cc(C)cc2c1=O | 9.95 | –

Compound | IC50 [1] [µM] | IC50 [2] [µM]
COCc1nc2cc(C)cc(-c3nn4cc(C)nc4s3)c2[nH]1 | 3.13 | –
COc1cc(Cl)c2nc(-c3cc(C)cc4c(=O)n(C)ccc34)sc2c1 | 0.98 | –
Cc1cc(-c2nn3cc(C)nc3s2)c2ccn(C)c(=O)c2c1 | 3.21 | –
Cc1cc(-c2nc3c(s2)CCCC3)c2nc(C)n(C)c(=O)c2c1 | 8.21 | –
Cc1cc(-c2nn3ccnc3s2)c2ccn(C)c(=O)c2c1 | 3 | –
CCc1cc(-c2nc3c(Cl)cc(OC)cc3s2)c2ncn(C)c(=O)c2c1 | 0.16 | 0.04
Cc1cc(-c2cc3ccccc3o2)c2ncn(C)c(=O)c2c1 | 4.26 | –
Cc1cc(-c2nc3c(s2)CCCC3)c2ncn(C(C)C)c(=O)c2c1 | > 10 | –
Cc1cc(-c2nc3c(Cl)cc(OCCNS(=O)(=O)c4ccc(Cl)cc4Cl)cc3s2)c2ncn(C)c(=O)c2c1 | 0.95 | –
Cc1cc(-c2nc3c(Cl)cc(Cl)cc3s2)c2ncn(C)c(=O)c2c1 | 2.62 | –
Cc1cc(-c2nc3c(Cl)cc(OCCNS(C)(=O)=O)cc3s2)c2ncn(C)c(=O)c2c1 | > 10 | –
Cc1cc(-c2ccc(F)cc2O)c2ncn(C)c(=O)c2c1 | > 10 | –
Cc1cc(-c2cccc3ccccc23)c2ncn(C)c(=O)c2c1 | > 10 | –
Cc1cc(-c2nc3c(Cl)cc(OCCNS(=O)(=O)c4ccccc4)cc3s2)c2ncn(C)c(=O)c2c1 | 2.52 | –
CCn1cnc2c(-c3nc4c(s3)CCCC4)cc(C)cc2c1=O | 3.74 | –
Cc1cc(-c2cccc(Cl)c2Cl)c2ncn(C)c(=O)c2c1 | 3.7 | –
COCn1cnc2c(-c3nc4c(Cl)cc(OC)cc4s3)cc(C)cc2c1=O | 1 | –
Cc1cc(-c2nc3c(s2)CCCC3)c2ncn(C)c(=O)c2c1 | 0.11 | 0.029
CCOCn1cnc2c(-c3nc4c(Cl)cc(OC)cc4s3)cc(C)cc2c1=O | 0.65 | 0.107
Cc1cc(-c2nc3c(Cl)cc4c(c3s2)OCCO4)c2ncn(C)c(=O)c2c1 | 5.57 | –
COc1cc(Cl)c2nc(-c3cc(C)cc4c3CCN(C)C4=O)sc2c1 | 1.84 | –
Cc1cc(-c2nc3c(Cl)cc(OCCN)cc3s2)c2ncn(C)c(=O)c2c1 | 3.02 | –
Cc1cc(-c2nc3c(s2)CCCC3)c2nc[nH]c(=O)c2c1 | 1.38 | –
Cc1ccc(S(=O)(=O)NCCOc2cc(Cl)c3nc(-c4cc(C)cc5c(=O)n(C)cnc45)sc3c2)cc1 | 0.52 | –

Compound | IC50 [1] [µM] | IC50 [2] [µM]
COCc1nc2cc(C)cc(-c3nc4c(Cl)cc(OC)cc4s3)c2[nH]1 | 1.63 | –
C#CCn1cnc2c(-c3nc4c(F)cc(OC)cc4s3)cc(C)cc2c1=O | 4.2 | –
Cc1cc(-c2nc3c(Cl)cc(OCCNS(=O)(=O)c4ccc(Cl)cc4)cc3s2)c2ncn(C)c(=O)c2c1 | 1.04 | –
Cc1cc2c(c(-c3nn4ccnc4s3)c1)CCN(C)C2=O | > 10 | –
Cc1cc(-c2ccc(Cl)cc2Cl)c2ncn(C)c(=O)c2c1 | 1.22 | 0.174
COc1cc(Cl)c2nc(-c3cc(C)cc4c(=O)n(C)c(C)nc34)sc2c1 | 2.09 | –
COc1cc(F)c2nc(-c3cccc4c(=O)n(C)cnc34)sc2c1 | 5.34 | –
CCCCc1cc(-c2nc3c(s2)CCCC3)c2ncn(CC)c(=O)c2c1 | 6.28 | –
Cc1cc(-c2ccccc2)c2ncn(C)c(=O)c2c1 | > 10 | –
COc1cc(Cl)c2nc(-c3cc(C)cc4c(=O)n(C)c(C(C)C)nc34)sc2c1 | > 10 | –
COCc1cc2ccc(OC)c(-c3nn4ccnc4s3)c2o1 | 10 | –
CCc1cc(-c2nc3c(s2)CCCC3)c2ncn(CC)c(=O)c2c1 | > 10 | –
COc1cc(Cl)c2nc(-c3cccc4c(=O)n(C)cnc34)sc2c1 | 6.78 | –
CSc1nn2cc(-c3cc4ccccc4o3)nc2s1 [US9862730, Example 1] | 0.94 | –
COc1cc(Cl)c2nc(-c3cc(C)cc4c(=O)n(Cc5ccccc5)cnc34)sc2c1 | > 10 | –
CCn1cnc2c(-c3nc4c(Cl)cc(OC)cc4s3)cc(C)cc2c1=O | 1.85 | –
COCc1cc2cc(C)cc(-c3nn4ccnc4s3)c2o1 | 3.44 | –
Cc1cc(-c2nc3c(Cl)cc(OCCNS(=O)(=O)c4ccc(C(F)(F)F)cc4)cc3s2)c2ncn(C)c(=O)c2c1 | 0.17 | 0.0066
COCc1cnc2c(-c3nc4c(Cl)cc(OC)cc4s3)cc(C)cc2n1 | 0.79 | –
CCOCn1cnc2c(-c3nc4c(s3)CCCC4)cc(C)cc2c1=O | 4.77 | –
Cc1cc(-c2cccnc2)c2ncn(C)c(=O)c2c1 | > 10 | –
COCn1cnc2c(-c3nc4c(s3)CCCC4)cc(C)cc2c1=O | 2.32 | –
COc1cc(Cl)c2nc(-c3cc(C)cc4c(=O)n(C)cnc34)sc2c1 | – | 0.02
Cc1cc(-c2nc3c(Cl)cc(OCCNS(=O)(=O)c4ccc(F)cc4)cc3s2)c2ncn(C)c(=O)c2c1 | 8.22 | –
